From US8937084B2, “Nitrogen containing morphinan derivatives and the use thereof” (Purdue Pharma L.P., priority 2012, dated 2015) come the findings set out here.

The target in experiment [1] is T1, μ-opioid receptor (Homo sapiens (Human), UniProt P35372). The experiment is described as follows: μ-opioid receptor radioligand dose-displacement binding assay ([3H]-diprenorphine). The protocol: μ-Opioid Receptor Binding Assay Procedures: Radioligand dose-displacement binding assays for μ-opioid receptors used 0.3 nM [^3H]-diprenorphine (Perkin Elmer, Shelton, Conn.), with […] membrane protein/well in a final volume of 500 μl binding buffer (10 mM MgCl2, 1 mM EDTA, 5% DMSO, 50 mM HEPES, pH 7.4). Reactions were carried out in the absence or presence of increasing concentrations of unlabeled naloxone. All reactions were conducted in 96-deep well polypropylene plates for 2 hours at room temperature. Binding reactions were terminated by rapid filtration onto 96-well Unifilter GF/C filter plates (Perkin Elmer, Shelton, Conn.), presoaked in 0.5% polyethylenimine using a 96-well tissue harvester (Perkin Elmer, Shelton, Conn.) followed by performing three filtration washes with 500 μl of ice-cold binding buffer. Filter plates were subsequently dried at 50° C. for 2-3 hours. BetaScint scintillation cocktail (Perkin Elmer, Shelton, Conn.) was added (50 μl/well), and plates were counted using a Packard Top-Count for 1 min/well. The data were analyzed using the one-site competition curve fitting functions in GraphPad PRISM™ v. 3.0 or higher (San Diego, Calif.), or an in-house function for one-site competition curve-fitting.
In TABLE 1, binding affinity of certain Compounds of the Invention to the μ-, δ- and κ-opioid receptors was determined as described above.

Experiment [2] deals with T1, μ-opioid receptor. Briefly: μ-opioid receptor [35S]GTPγS functional assay, HEK-293 or CHO cells. Type of experiment: biochemical. To be noted: for EC50: GTPγS; for Emax: relative to DAMGO. On the procedure:
(§1) μ-Opioid Receptor Functional Assay Procedures: [^35S]GTPγS functional assays were conducted using freshly thawed μ-receptor membranes prepared in-house from a cell line expressing recombinant μ opioid receptor in a HEK-293, CHO or U-2 OS cell background, or purchased from a commercial source (Perkin Elmer, Shelton, Conn.; or DiscovRx, Fremont, Calif.). Assay reactions were prepared by sequentially adding the following reagents to binding buffer (100 mM NaCl, 10 mM MgCl2, 20 mM HEPES, pH 7.4) on ice (final concentrations indicated): membrane protein (0.026 mg/mL), saponin ([…]), GDP ([…]) and [^35S]GTPγS (0.20 nM; Perkin Elmer, Shelton, Conn.). The prepared membrane solution (190 μl/well) was transferred to 96-shallow well polypropylene plates containing 10 μl of 20× concentrated stock solutions of the agonist [D-Ala^2, N-methyl-Phe^4 Gly-ol^5]-enkephalin (DAMGO) prepared in dimethyl sulfoxide (DMSO). Plates were incubated for 30 min at about 25° C. with shaking. Reactions were terminated by rapid filtration onto 96-well Unifilter GF/B filter plates (Perkin Elmer, Shelton, Conn.) using a 96-well tissue harvester (Perkin Elmer, Shelton, Conn.) followed by three filtration washes with 200 μl of ice-cold wash buffer (10 mM NaH2PO4, 10 mM Na2HPO4, pH 7.4). Filter plates were subsequently dried at 50° C. for 2-3 hours. BetaScint scintillation cocktail (Perkin Elmer, Shelton, Conn.) was added (50 μl/well) and plates were counted using a Packard Top-Count for 1 min/well. Data were analyzed using the sigmoidal dose-response curve fitting functions in GraphPad PRISM v. 3.0, or an in-house function for non-linear, sigmoidal dose-response curve-fitting.
(§2) μ-Opioid Receptor Functional Data: μ GTP EC50 is the concentration of a compound providing 50% of the maximal response for the compound at a μ-opioid receptor.
(§3) μ GTP Emax (%) is the maximal effect elicited by a compound relative to the effect elicited by DAMGO, a standard μ agonist. Generally, the μ GTP Emax (%) value measures the efficacy of a compound to treat or prevent pain or other Conditions.
In TABLE 2, activity response of certain Compounds of the Invention to the μ-, δ- and κ-opioid receptors was determined as described above for functional assays using HEK-293 or CHO cells.
(GTPγS resists hydrolysis and so accumulates on activated G proteins.)

The target in experiment [3] is T1, μ-opioid receptor. Briefly: μ-opioid receptor [35S]GTPγS functional assay, U-2 OS cells. It is filed as biochemical. To be noted: for EC50: GTPγS; for Emax: relative to DAMGO. The protocol: as §1, §2, §3
(§4) The following TABLE 3 provides results on the activity response of certain Compounds of the Invention at the μ- and κ-opioid receptors determined as described above using U-2 OS cells.

The target in the next experiment is κ opioid receptor (Homo sapiens (Human), UniProt P41145). Briefly: κ-opioid receptor [35S]GTPγS functional assay, U-2 OS cells. Type of experiment: biochemical. Conditions: for EC50: GTPγS; for Emax: relative to U69,593. On the procedure: κ-Opioid Receptor Functional Assay Procedures: Functional [^35S]GTPγS binding assays were conducted as follows. κ opioid receptor membrane solution was prepared by sequentially adding final concentrations of 0.026 μg/μl κ membrane protein (in-house), 10 μg/mL saponin, 3 μM GDP and 0.20 nM [^35S]GTPγS to binding buffer (100 mM NaCl, 10 mM MgCl2, 20 mM HEPES, pH 7.4) on ice. The prepared membrane solution (190 μl/well) was transferred to 96-shallow well polypropylene plates containing 10 μl of 20× concentrated stock solutions of agonist prepared in DMSO. Plates were incubated for 30 min at a temperature of about 25° C. with shaking. Reactions were terminated by rapid filtration onto 96-well Unifilter GF/B filter plates (Perkin Elmer, Shelton, Conn.) using a 96-well tissue harvester (Packard) and followed by three filtration washes with 200 μl ice-cold binding buffer (10 mM NaH2PO4, 10 mM Na2HPO4, pH 7.4). Filter plates were subsequently dried at 50° C. for 2-3 hours. Fifty μl/well scintillation cocktail (Perkin Elmer, Shelton, Conn.) was added and plates were counted in a Packard Top-Count for 1 min/well.
κ-Oploid Receptor Functional Data: κ GTP EC50 is the concentration of a compound providing 50% of the maximal response for the compound at a K receptor.
κ GTP Emax (%) is the maximal effect elicited by a compound relative to the effect elicited by U69,593.
as §4

Structures are written as SMILES.

Usually Ki stands for a dissociation constant, usually derived from enzyme kinetics or from competition with a known ligand. The low end stands for a stronger hold on the target, the high end for a looser hold on the target. As usually defined, the EC50 is the midpoint of the concentration-response curve. One may read the Emax as the greatest response seen or fitted, relative to the assay's reference. On μ-opioid receptor [1], `NC(=O)CN1C[C@H]2[C@H]3Cc4ccc(O)cc4[C@@]2(CCN3CC2CC2)CC1=O` [Compound 4, 2-((4aS,5R,10bS)— 13-(cyclopropylmethyl)-9-hydroxy-2-oxo-4,4-a,5,6-tetrahydro-1H-5,10b-(epiminoethano)benzo[f]isoquinolin-3(2H)-yl)acetamide] registered an inhibition constant (Ki) of 24.4 ± 7.61 nM. For the same compound, the 50% effective concentration (EC50) at μ-opioid receptor [2] stood at 9.11 ± 1.22 nM; at μ-opioid receptor [3] it was 7.05 ± 0.17 nM; at κ opioid receptor it was 1.65 ± 0.054 nM. For the same compound, the maximal response (Emax) is 24% on μ-opioid receptor [2], 39 ± 3.51% at μ-opioid receptor [3] and 104 ± 2.6% on κ opioid receptor.

Turning to `O=C1C[C@]23CCN(CC4CC4)[C@H](Cc4ccc(O)cc42)[C@@H]3CN1Cc1ccc(O)cc1` [Compound 5, (4aS,5R,10bS)-13-(cyclopropylmethyl)-9-hydroxy-3-(4-hydroxybenzyl)-4,4-a,5,6-tetrahydro-1H-5,10b-(epiminoethano)benzo[f]isoquinolin-2(3H)-one], the affinity on μ-opioid receptor [1] corresponds to a Ki of 12.8 ± 1.55 nM. On μ-opioid receptor [2], this compound had an EC50 of 45.9 ± 14 nM and an Emax of 30%.

Regarding `O=C1C[C@]23CCN(CC4CC4)[C@H](Cc4ccc(O)cc42)[C@@H]3CN1` [Compound 7, (4aS,5R,10bS)-13-(cyclopropylmethyl)-9-hydroxy-4,4-a,5,6-tetrahydro-1H-5,10b-(epiminoethano)benzo[f]isoquinolin-2(3H)-one], affinity on μ-opioid receptor [1] was put at a Ki of 5.61 ± 0.44 nM. Besides, the 50% effective concentration (EC50) at μ-opioid receptor [2] was 13.1 ± 3.75 nM; on μ-opioid receptor [3], 3.43 ± 0.43 nM; on κ opioid receptor, 0.21 ± 0.014 nM. The Emax amounted to 28.7% on μ-opioid receptor [2], 40.7 ± 3.18% on μ-opioid receptor [3] and 106 ± 1.53% at κ opioid receptor.

Compound `O=C(O)CN1C[C@H]2[C@H]3Cc4ccc(O)cc4[C@@]2(CCN3CC2CC2)CC1=O` [Compound 8, 2-((4aS,5R,10bS)-13-(cyclopropylmethyl)-9-hydroxy-2-oxo-4,4-a,5,6-tetrahydro-1H-5,10b-(epiminoethano)benzo[f]isoquinolin-3(2H)-yl)acetic acid] gave a Ki on μ-opioid receptor [1] of 21.2 ± 6.62 nM. In addition, at μ-opioid receptor [2], the EC50 was determined as 6.06 ± 2.1 nM and the Emax was found to be 12.3%.

At μ-opioid receptor [1], `Oc1ccc2c(c1)[C@@]13CCNC[C@H]1[C@@H](C2)N(CC1CC1)CC3` [Compound 13, (4aS,5R,10bR)-13-(cyclopropylmethyl)-2,3,4,4a,5,6-hexahydro-1H-5,10b-(epiminoethano)benzo[f]isoquinolin-9-ol] came in with an inhibition constant (Ki) of 50.4 ± 16.7 nM. On μ-opioid receptor [2], this compound returned an EC50 of 29.4 ± 7.66 nM and an Emax of 61%.
